Experimental data from patent publication US12570618B2, “Compound, production method therefor, and pharmaceutical composition” (TOKYO UNIVERSITY OF SCIENCE FOUNDATION, priority 2021, dated 2026).

Assays:
GIST-T1 cells = assay: cell proliferation inhibitory activity, ATP production (Test Example 1); format: cell-based, human; details: for IC50: Homo sapiens, GISTT1, 48 h, GIST-T1 cells (KIT^Δ560-578, imatinib-sensitive), cultured 2 days with compound, ATP production, n=3
Source text: (§1) Compounds RS1, RS2, and RS5 obtained in Synthesis Examples 1, 2, and 5, and M-COPA synthesized in the same manner as in Synthesis Example 1 in Patent Document 1 were examined for cell proliferation inhibitory activity against human cultured cancer cells with KIT tyrosine kinase mutation. The human cultured cancer cells used were GIST-T1 cells (KIT^Δ560-578. imatinib-sensitive) and GIST-R9 cells (KIV^Δ560-578/D820V, imatinib-resistant) as gastrointestinal stromal tumor cell lines, and HMC-1.2 cells (KIT^V560G/D816V, imatinib-resistant) as a mast cell leukemia cell line. The cancer cells of each type were seeded on a 96-well plate and cultured overnight, and cultured for 2 days with addition of serially diluted products of the compounds, and the cell proliferation was then measured by quantifying the ATP production (n=3). FIG. 1 to FIG. 3 show the cell proliferation curves for the GIST-T1 cells, GIST-R9 cells, and HMC-1.2 cells.

HMC-1.2 cells = assay: as above; format: cell-based, human; details: for IC50: Homo sapiens, 48 h, HMC-1.2 cells (KIT^V560G/D816V, imatinib-resistant), cultured 2 days with compound, ATP production, n=3
Source text: as §1

GIST-R9 cells = assay: as above; format: cell-based, human; details: for IC50: Homo sapiens, 48 h, GIST-R9 cells (KIV^Δ560-578/D820V, imatinib-resistant), cultured 2 days with compound, ATP production, n=3
Source text: as §1

[1] = tested on: H1650 (Lung adenocarcinoma cell line); assay: cell proliferation inhibitory activity, WST-8 (Test Example 2); format: cell-based; details: Homo sapiens, NCI-H1650, 48 h; H1650, 2 days with compound, WST-8, Table 2
Source text: (§2) Compounds RS1 to RS7 obtained in Synthesis Examples 1 to 7, and M-COPA synthesized in the same manner as in Synthesis Example 1 in Patent Document 1 were examined for cell proliferation inhibitory activity against human cultured cancer cells. The cancer cells used were eight human cancer cell lines (one skin cancer cell line, one ovarian cancer cell line, one prostate cancer cell line, two lung adenocarcinoma cell lines, one colorectal cancer cell line, two breast adenocarcinoma cell lines). The cancer cells of each type were seeded on a 96-well plate and cultured for 2 days, and cultured for 2 days with addition of serially diluted products of the compounds, and the cell proliferation was then measured by colorimetry with a water-soluble tetrazolium salt (WST-8). Thereafter, 50% cell proliferation inhibitory concentrations (GI50) were calculated from the cell proliferation curves.

[2] = tested on: SK-OV3 (Ovarian cancer cell line); assay: as above; format: cell-based; details: Homo sapiens, SK-OV-3, 48 h, SK-OV3, 2 days with compound
Source text: as §2

[3] = tested on: MCF-7 (Breast adenocarcinoma cell line); assay: as above; format: cell-based; details: Homo sapiens, MCF7, 48 h, MCF-7, 2 days with compound
Source text: as §2

[4] = tested on: DU-145 (Prostate cancer cell line); assay: as above; format: cell-based; details: Homo sapiens, 48 h, DU-145, 2 days with compound
Source text: as §2

[5] = tested on: DLD-1 (Colorectal cancer cell line); assay: as above; format: cell-based; details: Homo sapiens, 48 h, DLD-1, 2 days with compound
Source text: as §2

[6] = tested on: Hs925t (Skin cancer cell line); assay: as above; format: cell-based; details: Homo sapiens, 48 h, 2 days with compound
Source text: as §2

[7] = tested on: H2228 (Lung adenocarcinoma cell line); assay: as above; format: cell-based; details: Homo sapiens, NCI-H2228, 48 h; H2228, 2 days with compound, WST-8, Table 2
Source text: as §2

[8] = tested on: Hs578t (Breast adenocarcinoma cell line); assay: as above; format: cell-based; details: Homo sapiens, Hs-578T, 48 h, 2 days with compound
Source text: as §2

SMILES	IC50 (GIST-T1 cells)	IC50 (HMC-1.2 cells)	IC50 (GIST-R9 cells)	GI50 [1]	GI50 [2]	GI50 [3]	GI50 [4]	GI50 [5]	GI50 [6]	GI50 [7]	GI50 [8]	inhibition of cell proliferation (in words) (GIST-T1 cells; GIST-T1 cells, FIG. 1)	inhibition of cell proliferation (in words) (HMC-1.2 cells; HMC-1.2 cells, FIG. 3)	inhibition of cell proliferation (in words) (GIST-R9 cells; GIST-R9 cells, FIG. 2)
C/C(=C\C=C\[C@@H]1[C@H]2[C@H](C)[C@@H](O)[C@H](C)C[C@@H]2C=C[C@@H]1C)C(=O)NCc1cccnc1 [M-COPA, 2-methylcoprophilinamide, reference compound]	347 ± 21 nM	86 ± 9 nM	528 ± 59 nM	80 nM	30 nM	350 nM	100 nM	30 nM	50 nM	40 nM	40 nM	–	–	–
C[C@@H]1[C@@H](O)[C@H](C)C[C@@H]2C=C[C@H](C)[C@H](/C=C/C=C(\Br)C(=O)NCc3cnco3)[C@@H]12 [RS1, (2Z,4E)-2-Bromo-5-((1′S,2′S,4′aR,6′R,7′S,8′S,8′aS)-7′-hydroxy-2′,6′,8′-trimethyl-1′,2′,4′a,5′,6′,7′,8′,8′a-octahydronaphthalen-1′-yl)-N-(oxazol-5″-ylmethyl)penta-2,4-dienamide]	268 nM	50 nM	363 nM	5 nM	5 nM	30 nM	40 nM	3 nM	1 nM	10 nM	3 nM	in a concentration-dependent manner	in a concentration-dependent manner	in a concentration-dependent manner
C[C@@H]1[C@@H](O)[C@H](C)C[C@@H]2C=C[C@H](C)[C@H](/C=C/C=C(\Br)C(=O)NCc3cocn3)[C@@H]12 [RS3, (2Z,4E)-2-Bromo-5-((1′S,2′S,4′aR,6′R,7′S,8′S,8′aS)-7′-hydroxy-2′,6′,8′-trimethyl-1′,2′,4′a,5′,6′,7′,8′,8′a-octahydronaphthalen-1′-yl)-N-(oxazol-4″-ylmethyl)penta-2,4-dienamide]	–	–	–	80 nM	30 nM	300 nM	200 nM	30 nM	30 nM	50 nM	3 nM	–	–	–
C[C@@H]1[C@@H](O)[C@H](C)C[C@@H]2C=C[C@H](C)[C@H](/C=C/C=C(\Br)C(=O)NCc3nccs3)[C@@H]12 [RS4, (2Z,4E)-2-Bromo-5-((1′S,2′S,4′aR,6′R,7′S,8′S,8′aS)-7′-hydroxy-2′,6′,8′-trimethyl-1′,2′,4′a,5′,6′,7′,8′,8′a-octahydronaphthalen-1′-yl)-N-(thiazol-2″-ylmethyl)penta-2,4-dienamide]	–	–	–	70 nM	40 nM	500 nM	300 nM	40 nM	10 nM	70 nM	30 nM	–	–	–
C[C@H]1[C@@H]2[C@@H](/C=C/C=C(\Br)C(=O)NCc3cncs3)[C@@H](C)C=C[C@H]2CC[C@@H]1O [RS6, (2Z,4E)-2-Bromo-5-((1′S,2′S,4′aR,7′S,8′S,8′aS)-7′-hydroxy-2′,8′-dimethyl-1′,2′,4′a,5′,6′,7′,8′,8′a-octahydronaphthalen-1′-yl)-N-(thiazol-5″-ylmethyl)penta-2,4-dienamide]	–	–	–	100 nM	5 nM	100 nM	50 nM	40 nM	3 nM	100 nM	30 nM	–	–	–
C[C@H]1[C@@H]2[C@@H](/C=C/C=C(\Br)C(=O)NCc3cccnc3)[C@@H](C)C=C[C@H]2CC[C@@H]1O [RS7, (2Z,4E)-2-Bromo-5-((1′S,2′S,4′aR,7′S,8′S,8′aS)-7′-hydroxy-2′,8′-dimethyl-1′,2′,4′a,5′,6′,7′,8′,8′a-octahydronaphthalen-1′-yl)-N-(pyridin-3″-ylmethyl)penta-2,4-dienamide]	–	–	–	100 nM	50 nM	1000 nM	300 nM	30 nM	30 nM	1000 nM	10 nM	–	–	–
